Measurements from ChEMBL document CHEMBL4507271, “Data for DCP probe BAY-707” (2021).
Each block holds one compound with its values, some of them ahead of it.

How the values were obtained:
[1] = molecular target: Sodium-dependent noradrenaline transporter (Homo sapiens) (UniProt P23975); details: Compound concentration 10.0 uM
[2] = molecular target: Muscarinic acetylcholine receptor M1 (Homo sapiens) (UniProt P11229); details: Compound concentration 10.0 uM
[3] = molecular target: GABA-A receptor; anion channel; experiment: GPCRScan assay: inhibition of GABAA/BZP; assay type: protein-complex assay, Rattus norvegicus; parameters: radioligand conc. used [nm] 0.6 – 4.0, parental cells brain tissue
[4] = molecular target: D(1A) dopamine receptor (Homo sapiens) (UniProt P21728); details: Compound concentration 10.0 uM
[5] = molecular target: Muscarinic acetylcholine receptor M2 (Homo sapiens) (UniProt P08172); details: Compound concentration 10.0 uM
[6] = molecular target: 5-hydroxytryptamine receptor 2A (Homo sapiens) (UniProt P28223); details: Compound concentration 10.0 uM
[7] = molecular target: 5-hydroxytryptamine receptor 5A (Homo sapiens) (UniProt P47898); details: Compound concentration 10.0 uM
[8] = molecular target: Alpha-2B adrenergic receptor (Homo sapiens) (UniProt P18089); details: Compound concentration 10.0 uM
[9] = molecular target: 5-hydroxytryptamine receptor 2B (Homo sapiens) (UniProt P41595); details: Compound concentration 10.0 uM
[10] = molecular target: Muscarinic acetylcholine receptor M5 (Homo sapiens) (UniProt P08912); details: Compound concentration 10.0 uM
[11] = molecular target: Beta-2 adrenergic receptor (Homo sapiens) (UniProt P07550); details: Compound concentration 10.0 uM
[12] = molecular target: 5-hydroxytryptamine receptor 6 (Homo sapiens) (UniProt P50406); details: Compound concentration 10.0 uM
[13] = molecular target: 5-hydroxytryptamine receptor 2C (Homo sapiens) (UniProt P28335); details: Compound concentration 10.0 uM
[14] = molecular target: Alpha-2C adrenergic receptor (Homo sapiens) (UniProt P18825); details: Compound concentration 10.0 uM
[15] = molecular target: Histamine H2 receptor (Homo sapiens) (UniProt P25021); details: Compound concentration 10.0 uM
[16] = molecular target: D(4) dopamine receptor (Homo sapiens) (UniProt P21917); details: Compound concentration 10.0 uM
[17] = molecular target: 5-hydroxytryptamine receptor 1B (Homo sapiens) (UniProt P28222); details: Compound concentration 10.0 uM
[18] = molecular target: Kappa-type opioid receptor (Homo sapiens) (UniProt P41145); details: Compound concentration 10.0 uM
[19] = molecular target: Sodium-dependent dopamine transporter (Homo sapiens) (UniProt Q01959); details: Compound concentration 10.0 uM
[20] = molecular target: D(3) dopamine receptor (Homo sapiens) (UniProt P35462); details: Compound concentration 10.0 uM
[21] = molecular target: Alpha-2A adrenergic receptor (Homo sapiens) (UniProt P08913); details: Compound concentration 10.0 uM
[22] = molecular target: 5-hydroxytryptamine receptor 3A (Homo sapiens) (UniProt P46098); details: Compound concentration 10.0 uM
[23] = molecular target: 5-hydroxytryptamine receptor 1A (Homo sapiens) (UniProt P08908); details: Compound concentration 10.0 uM
[24] = molecular target: Sigma non-opioid intracellular receptor 1 (Homo sapiens) (UniProt Q99720); details: Compound concentration 10.0 uM
[25] = molecular target: T1, GABA-A receptor; anion channel (Rattus norvegicus) (UniProt O09028+P15431+P18506+P18508+P19969+P20236+P23574+P23576+P28471+P28473+P30191+P62813+P63079+P63138+Q91ZM7+Q9ES14); details: Compound concentration 10.0 uM
[26] = molecular target: D(1B) dopamine receptor (Homo sapiens) (UniProt P21918); details: Compound concentration 10.0 uM
[27] = molecular target: 5-hydroxytryptamine receptor 1A (Homo sapiens, UniProt P08908); experiment: GPCRScan assay: inhibition of 5-HT1A; parameters: radioligand conc. used [nm] 0.5 – 1.0, parental cells stable CHO
[28] = molecular target: 5-hydroxytryptamine receptor 1D (Homo sapiens) (UniProt P28221); details: Compound concentration 10.0 uM
[29] = molecular target: Alpha-1D adrenergic receptor (Homo sapiens) (UniProt P25100); details: Compound concentration 10.0 uM
[30] = molecular target: D(2) dopamine receptor (Homo sapiens) (UniProt P14416); details: Compound concentration 10.0 uM
[31] = molecular target: T1, GABA-A receptor; anion channel (Rattus norvegicus); details: Compound concentration 10.0 uM; remark: listed apart in the source
[32] = molecular target: Histamine H4 receptor (Homo sapiens) (UniProt Q9H3N8); details: Compound concentration 10.0 uM
[33] = molecular target: Beta-3 adrenergic receptor (Homo sapiens) (UniProt P13945); details: Compound concentration 10.0 uM
[34] = molecular target: Alpha-1B adrenergic receptor (Homo sapiens) (UniProt P35368); details: Compound concentration 10.0 uM
[35] = molecular target: Histamine H1 receptor (Homo sapiens) (UniProt P35367); details: Compound concentration 10.0 uM
[36] = molecular target: 5-hydroxytryptamine receptor 1E (Homo sapiens) (UniProt P28566); details: Compound concentration 10.0 uM
[37] = molecular target: Sigma intracellular receptor 2 (Homo sapiens) (UniProt Q5BJF2); details: Compound concentration 10.0 uM
[38] = molecular target: 5-hydroxytryptamine receptor 7 (Homo sapiens) (UniProt P34969); details: Compound concentration 10.0 uM
[39] = molecular target: Alpha-1A adrenergic receptor (Homo sapiens) (UniProt P35348); details: Compound concentration 10.0 uM
[40] = molecular target: Mu-type opioid receptor (Homo sapiens) (UniProt P35372); details: Compound concentration 10.0 uM
Rattus norvegicus = organism: Rattus norvegicus; details: Compound concentration 10.0 uM
[41] = molecular target: Histamine H3 receptor (Homo sapiens) (UniProt Q9Y5N1); details: Compound concentration 10.0 uM
[42] = molecular target: Delta-type opioid receptor (Homo sapiens) (UniProt P41143); details: Compound concentration 10.0 uM
[43] = molecular target: Muscarinic acetylcholine receptor M3 (Homo sapiens) (UniProt P20309); details: Compound concentration 10.0 uM
[44] = molecular target: Oxidized purine nucleoside triphosphate hydrolase (Homo sapiens, UniProt P36639); experiment: PPiLight Biochemical Assay
[45] = molecular target: Muscarinic acetylcholine receptor M4 (Homo sapiens) (UniProt P08173); details: Compound concentration 10.0 uM
D(4) dopamine receptor = D(4) dopamine receptor (Homo sapiens, UniProt P21917); experiment: GPCRScan assay: inhibition of D4; parameters: radioligand conc. used [nm] 0.6 – 1.7, parental cells Stable HEK

Sequence of Sigma non-opioid intracellular receptor 1 (Homo sapiens) (Q99720 whole entry): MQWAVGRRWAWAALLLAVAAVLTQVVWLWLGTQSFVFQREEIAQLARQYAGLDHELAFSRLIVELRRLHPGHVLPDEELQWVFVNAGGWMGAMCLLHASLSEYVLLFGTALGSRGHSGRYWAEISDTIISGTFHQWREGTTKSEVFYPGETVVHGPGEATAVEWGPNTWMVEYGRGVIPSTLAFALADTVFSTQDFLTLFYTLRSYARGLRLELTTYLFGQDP
Sequence of Muscarinic acetylcholine receptor M5 (Homo sapiens) (P08912 whole entry): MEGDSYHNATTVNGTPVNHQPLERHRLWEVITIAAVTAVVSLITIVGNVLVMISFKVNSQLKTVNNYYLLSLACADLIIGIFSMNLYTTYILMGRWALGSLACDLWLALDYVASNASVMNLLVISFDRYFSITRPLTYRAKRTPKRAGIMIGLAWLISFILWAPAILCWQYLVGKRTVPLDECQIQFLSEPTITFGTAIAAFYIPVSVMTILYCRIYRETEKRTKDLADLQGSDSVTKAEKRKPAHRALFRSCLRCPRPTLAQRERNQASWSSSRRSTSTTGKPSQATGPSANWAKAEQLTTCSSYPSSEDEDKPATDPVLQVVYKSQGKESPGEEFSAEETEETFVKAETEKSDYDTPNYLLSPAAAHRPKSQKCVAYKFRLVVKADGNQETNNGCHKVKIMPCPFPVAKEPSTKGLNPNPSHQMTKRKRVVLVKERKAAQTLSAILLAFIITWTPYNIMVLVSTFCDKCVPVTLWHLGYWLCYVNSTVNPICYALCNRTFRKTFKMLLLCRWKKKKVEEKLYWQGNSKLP
Sequence of Sodium-dependent noradrenaline transporter (Homo sapiens) (P23975 whole entry): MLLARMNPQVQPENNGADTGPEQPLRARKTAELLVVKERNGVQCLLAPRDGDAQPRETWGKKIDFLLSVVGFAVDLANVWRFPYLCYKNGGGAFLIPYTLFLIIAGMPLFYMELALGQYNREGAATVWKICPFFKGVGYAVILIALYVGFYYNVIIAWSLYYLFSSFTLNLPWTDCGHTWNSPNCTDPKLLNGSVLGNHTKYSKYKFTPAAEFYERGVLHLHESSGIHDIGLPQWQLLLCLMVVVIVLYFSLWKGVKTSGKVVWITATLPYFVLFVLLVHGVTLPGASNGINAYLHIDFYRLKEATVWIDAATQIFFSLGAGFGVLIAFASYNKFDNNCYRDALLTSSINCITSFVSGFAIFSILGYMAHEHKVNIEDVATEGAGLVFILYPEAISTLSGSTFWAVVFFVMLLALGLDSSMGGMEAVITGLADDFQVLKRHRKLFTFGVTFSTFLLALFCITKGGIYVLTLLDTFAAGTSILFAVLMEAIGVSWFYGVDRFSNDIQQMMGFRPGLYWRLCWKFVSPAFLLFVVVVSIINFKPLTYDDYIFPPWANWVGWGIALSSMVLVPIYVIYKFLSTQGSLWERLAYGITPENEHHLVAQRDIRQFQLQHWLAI
Sequence of Histamine H3 receptor (Homo sapiens) (Q9Y5N1 whole entry): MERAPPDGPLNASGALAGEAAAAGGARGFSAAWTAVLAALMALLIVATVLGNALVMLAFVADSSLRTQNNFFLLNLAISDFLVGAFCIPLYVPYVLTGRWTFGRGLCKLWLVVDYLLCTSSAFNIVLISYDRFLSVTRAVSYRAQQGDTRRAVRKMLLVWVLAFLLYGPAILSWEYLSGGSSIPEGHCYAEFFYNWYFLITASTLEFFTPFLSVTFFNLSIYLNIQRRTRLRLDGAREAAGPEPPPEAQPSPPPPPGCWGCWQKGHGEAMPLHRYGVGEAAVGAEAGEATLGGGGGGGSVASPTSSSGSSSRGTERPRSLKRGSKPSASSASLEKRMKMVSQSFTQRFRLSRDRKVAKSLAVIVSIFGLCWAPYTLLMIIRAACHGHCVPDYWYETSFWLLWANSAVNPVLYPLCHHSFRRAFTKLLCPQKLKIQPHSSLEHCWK
Sequence of Muscarinic acetylcholine receptor M2 (Homo sapiens) (P08172 whole entry): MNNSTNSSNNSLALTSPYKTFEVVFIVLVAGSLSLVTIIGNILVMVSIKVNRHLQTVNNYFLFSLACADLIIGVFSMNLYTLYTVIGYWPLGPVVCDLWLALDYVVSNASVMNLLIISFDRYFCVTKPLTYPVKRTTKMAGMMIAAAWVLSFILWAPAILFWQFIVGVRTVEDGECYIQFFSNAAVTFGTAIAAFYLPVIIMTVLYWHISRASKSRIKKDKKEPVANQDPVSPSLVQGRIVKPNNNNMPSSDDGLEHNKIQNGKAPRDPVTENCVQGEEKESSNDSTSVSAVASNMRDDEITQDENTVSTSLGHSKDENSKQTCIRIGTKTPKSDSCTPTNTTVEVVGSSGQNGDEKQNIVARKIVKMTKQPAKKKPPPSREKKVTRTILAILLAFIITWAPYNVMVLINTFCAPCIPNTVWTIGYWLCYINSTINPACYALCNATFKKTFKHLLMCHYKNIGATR
Sequence of 5-hydroxytryptamine receptor 2A (Homo sapiens) (P28223 whole entry): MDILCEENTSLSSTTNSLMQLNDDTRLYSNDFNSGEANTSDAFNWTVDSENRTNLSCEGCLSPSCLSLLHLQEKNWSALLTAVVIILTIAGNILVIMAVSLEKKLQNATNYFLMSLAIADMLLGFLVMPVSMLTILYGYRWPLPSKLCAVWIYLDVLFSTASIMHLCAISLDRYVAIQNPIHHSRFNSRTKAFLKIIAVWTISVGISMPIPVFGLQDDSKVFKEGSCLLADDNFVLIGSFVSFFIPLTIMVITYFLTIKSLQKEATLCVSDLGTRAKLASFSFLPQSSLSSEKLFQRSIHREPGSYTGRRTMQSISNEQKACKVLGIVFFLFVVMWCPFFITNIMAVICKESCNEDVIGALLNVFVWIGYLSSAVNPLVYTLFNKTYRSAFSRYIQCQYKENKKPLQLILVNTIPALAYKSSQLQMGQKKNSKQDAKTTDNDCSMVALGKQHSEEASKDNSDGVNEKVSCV
Sequence of D(3) dopamine receptor (Homo sapiens) (P35462 whole entry): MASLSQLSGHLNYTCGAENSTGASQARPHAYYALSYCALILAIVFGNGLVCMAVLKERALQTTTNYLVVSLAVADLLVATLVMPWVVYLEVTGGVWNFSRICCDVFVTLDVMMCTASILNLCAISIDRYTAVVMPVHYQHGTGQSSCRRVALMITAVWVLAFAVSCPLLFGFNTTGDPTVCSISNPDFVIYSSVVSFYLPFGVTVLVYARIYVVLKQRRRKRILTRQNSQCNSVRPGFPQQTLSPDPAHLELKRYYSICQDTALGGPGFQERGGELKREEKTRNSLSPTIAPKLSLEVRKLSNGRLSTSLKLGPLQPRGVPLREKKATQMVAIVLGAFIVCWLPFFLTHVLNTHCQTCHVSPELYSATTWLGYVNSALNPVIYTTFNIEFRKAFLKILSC
Sequence of Sigma intracellular receptor 2 (Homo sapiens) (Q5BJF2 whole entry): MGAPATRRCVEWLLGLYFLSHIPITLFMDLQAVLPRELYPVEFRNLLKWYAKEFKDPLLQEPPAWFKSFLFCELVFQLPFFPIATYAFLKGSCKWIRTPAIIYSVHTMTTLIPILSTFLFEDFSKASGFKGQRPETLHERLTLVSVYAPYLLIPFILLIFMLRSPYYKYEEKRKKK
Sequence of Beta-2 adrenergic receptor (Homo sapiens) (P07550 whole entry, looked up): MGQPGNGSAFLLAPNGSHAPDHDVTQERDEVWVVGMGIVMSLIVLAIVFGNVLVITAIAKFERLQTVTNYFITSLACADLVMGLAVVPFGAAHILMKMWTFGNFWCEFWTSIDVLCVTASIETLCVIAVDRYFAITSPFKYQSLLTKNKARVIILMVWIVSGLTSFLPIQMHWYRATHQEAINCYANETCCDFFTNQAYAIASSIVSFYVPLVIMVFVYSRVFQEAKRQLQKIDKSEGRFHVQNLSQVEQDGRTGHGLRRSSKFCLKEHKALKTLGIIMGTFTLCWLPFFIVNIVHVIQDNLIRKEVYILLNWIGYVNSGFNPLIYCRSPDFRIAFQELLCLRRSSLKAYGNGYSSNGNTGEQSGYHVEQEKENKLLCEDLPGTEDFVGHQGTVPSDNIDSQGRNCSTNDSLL
Sequence of Histamine H1 receptor (Homo sapiens) (P35367 whole entry): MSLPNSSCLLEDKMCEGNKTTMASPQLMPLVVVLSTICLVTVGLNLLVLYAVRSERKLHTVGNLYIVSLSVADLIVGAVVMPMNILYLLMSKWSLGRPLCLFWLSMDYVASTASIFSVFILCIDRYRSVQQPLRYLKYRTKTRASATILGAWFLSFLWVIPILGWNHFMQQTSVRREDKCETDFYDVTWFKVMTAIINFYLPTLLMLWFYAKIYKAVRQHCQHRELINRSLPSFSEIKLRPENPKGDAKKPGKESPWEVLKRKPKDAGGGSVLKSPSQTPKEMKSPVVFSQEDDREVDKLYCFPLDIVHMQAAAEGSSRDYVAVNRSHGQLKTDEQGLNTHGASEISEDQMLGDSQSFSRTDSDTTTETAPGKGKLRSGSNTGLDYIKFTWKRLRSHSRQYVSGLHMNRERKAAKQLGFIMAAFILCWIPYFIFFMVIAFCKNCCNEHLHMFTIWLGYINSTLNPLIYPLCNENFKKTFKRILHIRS
Sequence of Beta-3 adrenergic receptor (Homo sapiens) (P13945 whole entry, looked up): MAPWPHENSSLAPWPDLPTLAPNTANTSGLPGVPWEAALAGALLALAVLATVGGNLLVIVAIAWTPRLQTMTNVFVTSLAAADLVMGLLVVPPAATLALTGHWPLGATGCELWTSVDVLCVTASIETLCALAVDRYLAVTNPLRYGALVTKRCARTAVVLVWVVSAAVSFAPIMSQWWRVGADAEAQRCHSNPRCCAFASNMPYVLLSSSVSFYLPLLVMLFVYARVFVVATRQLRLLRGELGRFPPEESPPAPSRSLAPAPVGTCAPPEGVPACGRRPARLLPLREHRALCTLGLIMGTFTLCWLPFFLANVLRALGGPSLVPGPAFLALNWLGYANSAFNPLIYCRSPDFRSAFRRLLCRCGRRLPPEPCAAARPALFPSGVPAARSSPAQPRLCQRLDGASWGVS

inhibition [1]: 40.2% | inhibition [2]: 21.7% | Ki [3]: 1530 nM | inhibition [4]: 1.92% | inhibition [5]: -1.26% | inhibition [6]: -7.89% | inhibition [7]: -8.05% | inhibition [8]: 34.4% | inhibition [9]: 47.1% | inhibition [10]: -4.95% | inhibition [11]: -6.09% | inhibition [12]: -8.52% | inhibition [13]: -4.02% | inhibition [14]: 3.16% | inhibition [15]: 1.31% | inhibition [16]: -3.84% | inhibition [17]: -1.66% | inhibition [18]: 13.1% | inhibition [19]: 25.5% | inhibition [20]: -7.82% | inhibition [21]: 18.1% | inhibition [22]: -1.37% | inhibition [23]: 69.8% | inhibition [24]: 24.3% | inhibition [25]: 57.3% | inhibition [26]: 34.3% | Ki [27]: 10000 nM | inhibition [28]: -7.55% | inhibition [29]: 8.58% | inhibition [30]: 12.3% | inhibition [31]: 28.2% | inhibition [32]: 0.0286% | inhibition [33]: 14.3% | inhibition [34]: -2.4% | inhibition [35]: 4.94% | inhibition [36]: 10.6% | inhibition [37]: 34.6% | inhibition [38]: -4.45% | inhibition [39]: 1.88% | inhibition [40]: 24.8% | inhibition (Rattus norvegicus): 30.1% | inhibition [41]: 40.5% | inhibition [42]: -0.04%
SMILES: CCNC(=O)c1cc2c(N3CCOC[C@@H]3C)ccnc2[nH]1

inhibition [1]: 5.35% | inhibition [2]: 11.9% | Ki [3]: 224 nM | pKi [3]: 6.72 | inhibition [4]: 14.2% | inhibition [5]: 7.19% | inhibition [6]: -1.68% | inhibition [8]: -2.44% | inhibition [9]: 2.79% | inhibition [10]: -0.9% | inhibition [11]: 27.3% | inhibition [12]: 31.9% | inhibition [13]: 46.2% | inhibition [14]: -1.28% | inhibition [43]: 38% | inhibition [15]: -3.91% | inhibition [16]: 77.6% | inhibition [17]: -8.46% | inhibition [18]: 14.6% | inhibition [20]: 12.1% | inhibition [21]: 16.9% | inhibition [22]: 18.6% | inhibition [23]: -1.88% | inhibition [24]: 24.5% | IC50 [44]: > 20000 nM (not active) | inhibition [25]: 84.2% | inhibition [28]: -0.31% | inhibition [29]: -8.1% | inhibition [30]: -1.89% | inhibition [31]: -1.39% | inhibition [45]: 5.75% | inhibition [32]: 5.51% | inhibition [33]: -9.19% | inhibition [34]: 5.71% | inhibition [35]: 26% | inhibition [36]: 9.36% | inhibition [37]: 30.4% | inhibition [38]: -1.21% | Ki (D(4) dopamine receptor; read-out: Ki): 736 nM | Ki (D(4) dopamine receptor; read-out: pKi (converted)): 708 nM | inhibition [39]: 3.94% | inhibition [40]: 0.08% | inhibition (Rattus norvegicus): 17.2% | inhibition [41]: -6.16% | inhibition [42]: 2.73%
SMILES: CCNC(=O)c1cc2c(N3CCOC[C@@H]3C)ccnc2n1C
